# Results published in US20250122155A1, “NOVEL INDOLE DERIVATIVE, PHARMACEUTICAL COMPOSITION COMPRISING SAME, AND USE THEREOF” (MITOIMMUNE THERAPEUTICS INC., priority 2021, published 2025).
# System: H9C2 cells
# Assay: Protective effect on heart cells against t-BHP (LDH release)
# Type: cell-based
# Settings: H9C2, t-BHP 400 μM, 2 hours, read-out: EC50 (μM), Cell Protection Effect against t-BHP in Heart Cells
# How it was run: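 H9C2 cells (1.5×10^4/well, cultured 24 h) were pretreated 15–20 min with compound at 0.01–30 μM final, then exposed 2 h to 400 μM t-BHP. LDH in supernatant was measured colorimetrically at 490 nm after 30 min room-temperature reaction; EC50 derived from protection.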
row,SMILES,EC50 [µM]
1,"COCCOCCOCc1cc(NC2CCCC2)c2[nH]c(-c3ccccc3)cc2c1 [Example 39, N-cyclopentyl-5-[2-(2-methoxyethoxy)ethoxymethyl]-2-phenyl-1H-indol-7-amine]",≤ 0.3
2,"COCCOCc1cc(NC2CCOCC2)c2[nH]cc(C)c2c1 [Example 50, 5-(2-methoxyethoxymethyl)-3-methyl-N-tetrahydropyran-4-yl-1H-indol-7-amine]",> 1

# System: NIH/3T3 cells
# Assay: Cell death protective effect in fibroblasts against Erastin, glutamate and RSL3 (LDH)
# Type: cell-based, mouse
# Settings: NIH/3T3, Erastin 3 μM, compound 0.1 μM, 24 hours
# Protocol: (§1) In order to identify the protective effect on fibroblasts, NIH/3T3 cells were divided into 96-well plates by 8×10^3 and cultured for 18 to 24 hours. The compounds of Examples were diluted to final concentrations of 0.1 and 1 μM, treated in each well, and incubated for 15 to 20 minutes. Erastin, glutamate, and RSL3 were treated to have final concentrations of 3 μM, 30 mM, and 3 μM, respectively, and cultured for 24 hours. In order to identify the protective effect of each compound, the degree of LDH extracellular secretion was measured using cytotoxicity LDH assay kit [Dojindo; CK12]. Briefly, at the time when the treatment of the cells with Erastin, glutamate, and RSL3 for 24 hours is completed, the supernatants containing the cells are taken by 70 μL and transferred to a new 96-well plate. The assay buffer included in the kit is added in an amount of 70 μL/well (the same amount as the sample) thereto, and then the plate is wrapped with a foil and the reaction is performed at room temperature for 15 minutes. After observing the changed color of the sample, the stop solution was added in an amount of 35 μL/well thereto, and then the 00 inhibition value was calculated by measuring the absorbance value at a wavelength of 490 nm using an iD3 spectrophotometer.
row,SMILES,inhibition (%)
1,"COCCOCCOCc1cc(NC2CCCC2)c2[nH]c(-c3ccccc3)cc2c1 [Example 39, N-cyclopentyl-5-[2-(2-methoxyethoxy)ethoxymethyl]-2-phenyl-1H-indol-7-amine]",99
2,"COCCOCc1cc(NC2CCOCC2)c2[nH]cc(C)c2c1 [Example 50, 5-(2-methoxyethoxymethyl)-3-methyl-N-tetrahydropyran-4-yl-1H-indol-7-amine]",0

# Same assay, conditions: NIH/3T3, Erastin 3 μM, compound 1.0 μM, 24 hours
row,SMILES,inhibition (%)
1,"COCCOCCOCc1cc(NC2CCCC2)c2[nH]c(-c3ccccc3)cc2c1 [Example 39, N-cyclopentyl-5-[2-(2-methoxyethoxy)ethoxymethyl]-2-phenyl-1H-indol-7-amine]",100
2,"COCCOCc1cc(NC2CCOCC2)c2[nH]cc(C)c2c1 [Example 50, 5-(2-methoxyethoxymethyl)-3-methyl-N-tetrahydropyran-4-yl-1H-indol-7-amine]",8

# Same assay, conditions: NIH/3T3, Glutamate 30 mM, compound 0.1 μM, 24 hours
row,SMILES,inhibition (%)
1,"COCCOCCOCc1cc(NC2CCCC2)c2[nH]c(-c3ccccc3)cc2c1 [Example 39, N-cyclopentyl-5-[2-(2-methoxyethoxy)ethoxymethyl]-2-phenyl-1H-indol-7-amine]",99
2,"COCCOCc1cc(NC2CCOCC2)c2[nH]cc(C)c2c1 [Example 50, 5-(2-methoxyethoxymethyl)-3-methyl-N-tetrahydropyran-4-yl-1H-indol-7-amine]",99

# Same assay, conditions: NIH/3T3, Glutamate 30 mM, compound 1.0 μM, 24 hours
row,SMILES,inhibition (%)
1,"COCCOCCOCc1cc(NC2CCCC2)c2[nH]c(-c3ccccc3)cc2c1 [Example 39, N-cyclopentyl-5-[2-(2-methoxyethoxy)ethoxymethyl]-2-phenyl-1H-indol-7-amine]",100
2,"COCCOCc1cc(NC2CCOCC2)c2[nH]cc(C)c2c1 [Example 50, 5-(2-methoxyethoxymethyl)-3-methyl-N-tetrahydropyran-4-yl-1H-indol-7-amine]",100

# Same assay, conditions: NIH/3T3, RSL3 3 μM, compound 0.1 μM, 24 hours
row,SMILES,inhibition (%)
1,"COCCOCCOCc1cc(NC2CCCC2)c2[nH]c(-c3ccccc3)cc2c1 [Example 39, N-cyclopentyl-5-[2-(2-methoxyethoxy)ethoxymethyl]-2-phenyl-1H-indol-7-amine]",100
2,"COCCOCc1cc(NC2CCOCC2)c2[nH]cc(C)c2c1 [Example 50, 5-(2-methoxyethoxymethyl)-3-methyl-N-tetrahydropyran-4-yl-1H-indol-7-amine]",100

# Same assay, conditions: NIH/3T3, RSL3 3 μM, compound 1.0 μM, 24 hours
row,SMILES,inhibition (%)
1,"COCCOCCOCc1cc(NC2CCCC2)c2[nH]c(-c3ccccc3)cc2c1 [Example 39, N-cyclopentyl-5-[2-(2-methoxyethoxy)ethoxymethyl]-2-phenyl-1H-indol-7-amine]",100
2,"COCCOCc1cc(NC2CCOCC2)c2[nH]cc(C)c2c1 [Example 50, 5-(2-methoxyethoxymethyl)-3-methyl-N-tetrahydropyran-4-yl-1H-indol-7-amine]",100

# System: H9C2 cells
# Assay: Cell death protective effect in cardiac myocytes against Erastin, glutamate and RSL3 (LDH)
# Type: cell-based, rat
# Settings: H9C2, Erastin 1 μM, compound 0.1 μM, 24 hours
# Protocol: as §1, with “on cardiac cells, H9C2” for “on fibroblasts, NIH/3T3”, “by 1×10^4” for “by 8×10^3”, “of 1” for “of 3”, “μM, 25” for “μM, 30”, “and 0.5” for “and 3”, “minutes.” for “minutes. After observing the changed color of the sample, the stop solution was added in an amount of 35 μL/well thereto, and then the 00 inhibition value was calculated by measuring the absorbance value at a wavelength of 490 nm using an iD3 spectrophotometer.”
row,SMILES,inhibition (%)
1,"COCCOCCOCc1cc(NC2CCCC2)c2[nH]c(-c3ccccc3)cc2c1 [Example 39, N-cyclopentyl-5-[2-(2-methoxyethoxy)ethoxymethyl]-2-phenyl-1H-indol-7-amine]",100
2,"COCCOCc1cc(NC2CCOCC2)c2[nH]cc(C)c2c1 [Example 50, 5-(2-methoxyethoxymethyl)-3-methyl-N-tetrahydropyran-4-yl-1H-indol-7-amine]",16

# Same assay, conditions: H9C2, Erastin 1 μM, compound 1.0 μM, 24 hours
row,SMILES,inhibition (%)
1,"COCCOCCOCc1cc(NC2CCCC2)c2[nH]c(-c3ccccc3)cc2c1 [Example 39, N-cyclopentyl-5-[2-(2-methoxyethoxy)ethoxymethyl]-2-phenyl-1H-indol-7-amine]",100
2,"COCCOCc1cc(NC2CCOCC2)c2[nH]cc(C)c2c1 [Example 50, 5-(2-methoxyethoxymethyl)-3-methyl-N-tetrahydropyran-4-yl-1H-indol-7-amine]",18

# Same assay, conditions: H9C2, Glutamate 25 mM, compound 0.1 μM, 24 hours
row,SMILES,inhibition (%)
1,"COCCOCCOCc1cc(NC2CCCC2)c2[nH]c(-c3ccccc3)cc2c1 [Example 39, N-cyclopentyl-5-[2-(2-methoxyethoxy)ethoxymethyl]-2-phenyl-1H-indol-7-amine]",96
2,"COCCOCc1cc(NC2CCOCC2)c2[nH]cc(C)c2c1 [Example 50, 5-(2-methoxyethoxymethyl)-3-methyl-N-tetrahydropyran-4-yl-1H-indol-7-amine]",0

# Same assay, conditions: H9C2, Glutamate 25 mM, compound 1.0 μM, 24 hours
row,SMILES,inhibition (%)
1,"COCCOCCOCc1cc(NC2CCCC2)c2[nH]c(-c3ccccc3)cc2c1 [Example 39, N-cyclopentyl-5-[2-(2-methoxyethoxy)ethoxymethyl]-2-phenyl-1H-indol-7-amine]",96
2,"COCCOCc1cc(NC2CCOCC2)c2[nH]cc(C)c2c1 [Example 50, 5-(2-methoxyethoxymethyl)-3-methyl-N-tetrahydropyran-4-yl-1H-indol-7-amine]",49

# Same assay, conditions: H9C2, RSL3 0.5 μM, compound 0.1 μM, 24 hours
row,SMILES,inhibition (%)
1,"COCCOCCOCc1cc(NC2CCCC2)c2[nH]c(-c3ccccc3)cc2c1 [Example 39, N-cyclopentyl-5-[2-(2-methoxyethoxy)ethoxymethyl]-2-phenyl-1H-indol-7-amine]",96
2,"COCCOCc1cc(NC2CCOCC2)c2[nH]cc(C)c2c1 [Example 50, 5-(2-methoxyethoxymethyl)-3-methyl-N-tetrahydropyran-4-yl-1H-indol-7-amine]",7

# Same assay, conditions: H9C2, RSL3 0.5 μM, compound 1.0 μM, 24 hours
row,SMILES,inhibition (%)
1,"COCCOCCOCc1cc(NC2CCCC2)c2[nH]c(-c3ccccc3)cc2c1 [Example 39, N-cyclopentyl-5-[2-(2-methoxyethoxy)ethoxymethyl]-2-phenyl-1H-indol-7-amine]",96
2,"COCCOCc1cc(NC2CCOCC2)c2[nH]cc(C)c2c1 [Example 50, 5-(2-methoxyethoxymethyl)-3-methyl-N-tetrahydropyran-4-yl-1H-indol-7-amine]",4

# System: NRK-49F cells
# Assay: Cell death protective effect in renal fibroblasts against Erastin, glutamate and RSL3 (LDH)
# Type: cell-based, rat
# Settings: Erastin 3 μM, compound 0.1 μM, 24 hours
# Protocol: In order to identify the protective effect on renal fibroblasts, NRK-49F cells were divided into 96-well plates by 1×10^4 and cultured for 18 to 24 hours. The compounds of Examples were diluted to final concentrations of 0.1 and 1 μM, treated in each well, and incubated for 15 to 20 minutes. Erastin, glutamate, and RSL3 were treated to have final concentrations of 3 μM, 75 mM, and 3 μM, respectively, and cultured for 24 hours. In order to identify the protective effect of each compound, the degree of LDH extracellular secretion was measured using cytotoxicity LDH assay kit [Dojindo; CK12]. Briefly, at the time when the treatment of the cells with Erastin, glutamate, and RSL3 for 24 hours is completed, the supernatants containing the cells are taken by 70 μl and transferred to a new 96-well plate. The assay buffer included in the kit is added in an amount of 70 μL/well (the same amount as the sample) thereto, and then the plate is wrapped with a foil and the reaction is performed at room temperature for 15 minutes.
row,SMILES,inhibition (%)
1,"COCCOCCOCc1cc(NC2CCCC2)c2[nH]c(-c3ccccc3)cc2c1 [Example 39, N-cyclopentyl-5-[2-(2-methoxyethoxy)ethoxymethyl]-2-phenyl-1H-indol-7-amine]",99
2,"COCCOCc1cc(NC2CCOCC2)c2[nH]cc(C)c2c1 [Example 50, 5-(2-methoxyethoxymethyl)-3-methyl-N-tetrahydropyran-4-yl-1H-indol-7-amine]",3

# Same assay, conditions: Erastin 3 μM, compound 1.0 μM, 24 hours
row,SMILES,inhibition (%)
1,"COCCOCCOCc1cc(NC2CCCC2)c2[nH]c(-c3ccccc3)cc2c1 [Example 39, N-cyclopentyl-5-[2-(2-methoxyethoxy)ethoxymethyl]-2-phenyl-1H-indol-7-amine]",98
2,"COCCOCc1cc(NC2CCOCC2)c2[nH]cc(C)c2c1 [Example 50, 5-(2-methoxyethoxymethyl)-3-methyl-N-tetrahydropyran-4-yl-1H-indol-7-amine]",99

# Same assay, conditions: Glutamate 75 mM, compound 0.1 μM, 24 hours
row,SMILES,inhibition (%)
1,"COCCOCCOCc1cc(NC2CCCC2)c2[nH]c(-c3ccccc3)cc2c1 [Example 39, N-cyclopentyl-5-[2-(2-methoxyethoxy)ethoxymethyl]-2-phenyl-1H-indol-7-amine]",100
2,"COCCOCc1cc(NC2CCOCC2)c2[nH]cc(C)c2c1 [Example 50, 5-(2-methoxyethoxymethyl)-3-methyl-N-tetrahydropyran-4-yl-1H-indol-7-amine]",4

# Same assay, conditions: Glutamate 75 mM, compound 1.0 μM, 24 hours
row,SMILES,inhibition (%)
1,"COCCOCCOCc1cc(NC2CCCC2)c2[nH]c(-c3ccccc3)cc2c1 [Example 39, N-cyclopentyl-5-[2-(2-methoxyethoxy)ethoxymethyl]-2-phenyl-1H-indol-7-amine]",100
2,"COCCOCc1cc(NC2CCOCC2)c2[nH]cc(C)c2c1 [Example 50, 5-(2-methoxyethoxymethyl)-3-methyl-N-tetrahydropyran-4-yl-1H-indol-7-amine]",73

# Same assay, conditions: RSL3 3 μM, compound 0.1 μM, 24 hours
row,SMILES,inhibition (%)
1,"COCCOCCOCc1cc(NC2CCCC2)c2[nH]c(-c3ccccc3)cc2c1 [Example 39, N-cyclopentyl-5-[2-(2-methoxyethoxy)ethoxymethyl]-2-phenyl-1H-indol-7-amine]",98
2,"COCCOCc1cc(NC2CCOCC2)c2[nH]cc(C)c2c1 [Example 50, 5-(2-methoxyethoxymethyl)-3-methyl-N-tetrahydropyran-4-yl-1H-indol-7-amine]",16

# Same assay, conditions: RSL3 3 μM, compound 1.0 μM, 24 hours
row,SMILES,inhibition (%)
1,"COCCOCCOCc1cc(NC2CCCC2)c2[nH]c(-c3ccccc3)cc2c1 [Example 39, N-cyclopentyl-5-[2-(2-methoxyethoxy)ethoxymethyl]-2-phenyl-1H-indol-7-amine]",99
2,"COCCOCc1cc(NC2CCOCC2)c2[nH]cc(C)c2c1 [Example 50, 5-(2-methoxyethoxymethyl)-3-methyl-N-tetrahydropyran-4-yl-1H-indol-7-amine]",18

# System: MLE-12 cells
# Assay: Cell death protective effect in lung epithelial cells against RSL3 (LDH)
# Type: cell-based, rat
# Settings: MLE-12, RSL3 1.0 μM, compound 0.1 μM, 24 hours
# Protocol: In order to identify the protective effect on lung epithelial cells, MLE-12 cells were divided into 96-well plates by 5×10^3 and cultured for 18 to 24 hours. The compounds of Examples were diluted to final concentrations of 0.1 and 1.0 μM, treated in each well, and incubated for 20 minutes. RSL3 was treated to have final concentrations of 1.0 μM, respectively, and cultured for 24 hours. In order to identify the protective effect of each compound, the degree of LDH extracellular secretion was measured using cytotoxicity LDH assay kit [Dojindo; CK12]. Briefly, at the time when the treatment of the cells with RSL3 for 24 hours is completed, the supernatants containing the cells are taken by 70 μL and transferred to a new 96-well plate. The assay buffer included in the kit is added in an amount of 70 μL/well (the same amount as the sample) thereto, and then the plate is wrapped with a foil and the reaction is performed at room temperature for 15 minutes.
row,SMILES,inhibition (%)
1,"COCCOCCOCc1cc(NC2CCCC2)c2[nH]c(-c3ccccc3)cc2c1 [Example 39, N-cyclopentyl-5-[2-(2-methoxyethoxy)ethoxymethyl]-2-phenyl-1H-indol-7-amine]",89
2,"COCCOCc1cc(NC2CCOCC2)c2[nH]cc(C)c2c1 [Example 50, 5-(2-methoxyethoxymethyl)-3-methyl-N-tetrahydropyran-4-yl-1H-indol-7-amine]",0

# Same assay, conditions: MLE-12, RSL3 1.0 μM, compound 1.0 μM, 24 hours
row,SMILES,inhibition (%)
1,"COCCOCCOCc1cc(NC2CCCC2)c2[nH]c(-c3ccccc3)cc2c1 [Example 39, N-cyclopentyl-5-[2-(2-methoxyethoxy)ethoxymethyl]-2-phenyl-1H-indol-7-amine]",89
2,"COCCOCc1cc(NC2CCOCC2)c2[nH]cc(C)c2c1 [Example 50, 5-(2-methoxyethoxymethyl)-3-methyl-N-tetrahydropyran-4-yl-1H-indol-7-amine]",56
